The values below come from US10472358B2, “1H-pyrrolo[2,3-c]pyridin-7(6H)-ones and pyrazolo[3,4-c]pyridin-7(6H)-ones as inhibitors of BET proteins” (Incyte Corporation, priority 2014, dated 2019).

The structures appear in SMILES notation. Where only a bound is given, the exact number is not on record here.

For the first experiment, the system named is KMS.12.BM cells. The experiment in a line: KMS.12.BM cell viability assay (Cell Titer-GLO, ATP quantitation). In kind it is cell-based. Conditions: KMS-12-BM, 72 h; human myeloma cells, 3 days, concentration required for 50% cell death. Summed up: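 KMS.12.BM human myeloma cells (5000/well, RPMI with 10% FBS) were exposed to a compound concentration range for 3 days. Viable cells were measured by CellTiter-Glo ATP luminescence. IC50 is the concentration giving 50% cell death relative to untreated cells.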
A general note: In ATP-based viability assays light output follows the ATP content of the culture.
Broadly, the IC50 is the concentration that gives 50% inhibition. High values mean a need for much substance, low ones inhibition by little substance. Compound `CNS(=O)(=O)c1cc2c(c(-c3cn(C)c(=O)c4[nH]ccc34)c1)OC(C(C)C)C(=O)N2` (stereo not drawn) [Example 68, 2-isopropyl-N-methyl-8-(6-methyl-7-oxo-6,7-dihydro-1H-pyrrolo[2,3-c]pyridin-4-yl)-3-oxo-3,4-dihydro-2H-1,4-benzoxazine-6-sulfonamide] yielded an IC50 of no more than 1000 nM.
Still for that read-out and setting: the figure for `CC(C)C1Oc2c(cc(S(=O)(=O)C(C)C)cc2-c2cn(C)c(=O)c3[nH]ccc23)NC1=O` (stereo not drawn) [Example 52, 2-isopropyl-6-(isopropylsulfonyl)-8-(6-methyl-7-oxo-6,7-dihydro-1H-pyrrolo[2,3-c]pyridin-4-yl)-2H-1,4-benzoxazin-3(4H)-one] is no more than 1000 nM.
Compound `CC(C)[C@@H]1Nc2c(cc(S(C)(=O)=O)cc2-c2cn(C)c(=O)c3[nH]ccc23)NC1=O` [Example 60, (3S)-3-isopropyl-5-(6-methyl-7-oxo-6,7-dihydro-1H-pyrrolo[2,3-c]pyridin-4-yl)-7-(methylsulfonyl)-3,4-dihydroquinoxalin-2(1H)-one] displayed an IC50 of no more than 1000 nM.
Still for that read-out and setting: the figure for `CC(C)C1Oc2c(cc([N+](=O)[O-])cc2-c2cn(C)c(=O)c3[nH]ccc23)NC1=O` (stereo not drawn) [Example 21, 2-isopropyl-8-(6-methyl-7-oxo-6,7-dihydro-1H-pyrrolo[2,3-c]pyridin-4-yl)-6-nitro-2H-1,4-benzoxazin-3(4H)-one] is no more than 1000 nM; for `COc1cc2c(c(-c3cn(C)c(=O)c4[nH]ccc34)c1)OC(C)(C)C(=O)N2` [Example 27, 6-methoxy-2,2-dimethyl-8-(6-methyl-7-oxo-6,7-dihydro-1H-pyrrolo[2,3-c]pyridin-4-yl)-2H-1,4-benzoxazin-3(4H)-one] it is no more than 1000 nM; for `CC(O)c1cc(-c2cn(C)c(=O)c3[nH]ccc23)c2c(c1)N(C)C(=O)C(C)(C)O2` (stereo not drawn) [Example 83, 6-(1-hydroxyethyl)-2,2,4-trimethyl-8-(6-methyl-7-oxo-6,7-dihydro-1H-pyrrolo[2,3-c]pyridin-4-yl)-2H-1,4-benzoxazin-3(4H)-one] it is no more than 1000 nM.
Still for that read-out and setting: the figure for `CCC1Oc2c(cccc2-c2cn(C)c(=O)c3[nH]ccc23)NC1=O` (stereo not drawn) [Example 4, 2-ethyl-8-(6-methyl-7-oxo-6,7-dihydro-1H-pyrrolo[2,3-c]pyridin-4-yl)-2H-1,4-benzoxazin-3(4H)-one] is no more than 1000 nM; for `CC(C)C1Oc2c(cccc2-c2cn(C)c(=O)c3[nH]ccc23)NC1=O` (stereo not drawn) [Example 2, 2-isopropyl-8-(6-methyl-7-oxo-6,7-dihydro-1H-pyrrolo[2,3-c]pyridin-4-yl)-2H-1,4-benzoxazin-3(4H)-one] it is no more than 1000 nM.

The experiment is the same for the next values; noted with them: human myeloma cells, 3 days, concentration required for 50% cell death.
Consider `COc1cc2c(c(-c3cn(C)c(=O)c4[nH]ccc34)c1)OC(c1ccccc1)C(=O)N2` (single isomer, unassigned) [Example 24B, 6-methoxy-8-(6-methyl-7-oxo-6,7-dihydro-1H-pyrrolo[2,3-c]pyridin-4-yl)-2-phenyl-2H-1,4-benzoxazin-3(4H)-one], for which the concentration for half-maximal inhibition (IC50) was no more than 1000 nM.
